Results: US10836725B2, “Modulators of the integrated stress pathway” (Calico Life Sciences LLC, priority 2016, dated 2020)

tested on: ATF4 luciferase reporter; test: ATF4-Luc assay in HEK293T cells carrying the ATF4 luciferase reporter (in vitro model of VWMD); type: cell-based, human; conditions: Homo sapiens, HEK-293T, 1 μg/mL tunicamycin, 7 hours, luminescence (One Glo)
Experimental: In order to test exemplary compounds of the invention in a cellular context, a stable VWMD cell line was first constructed. The ATF4 reporter was prepared by fusing the human full-length ATF4 5′-UTR (NCBI Accession No. BC022088.2) in front of the firefly luciferase (FLuc) coding sequence lacking the initiator methionine as described in Sidrauski et al (eLife 2013). The construct was used to produce recombinant retroviruses using standard methods and the resulting viral supernatant was used to transduce HEK293T cells, which were then subsequently selected with puromycin to generate a stable cell line.
HEK293T cells carrying the ATF4 luciferase reporter were plated on polylysine coated 384-well plates (Greiner Bio-one) at 30,000 cells per well. Cells were treated the next day with 1 μg/mL tunicamycin and 200 nM of a compound of Formula (I) for 7 hours. Luminescence was measured using One Glo (Promega) as specified by the manufacturer. Cells were maintained in DMEM with L-glutamine supplemented with 10% heat-inactivated FBS (Gibco) and Antibiotic-Antimycotic solution (Gibco).
Table 2 below summarizes the EC50 data obtained using the ATF4-Luc assay for exemplary compounds of the invention.

Compound | EC50
O=C(COc1ccc(Cl)c(F)c1)NC12CCC(C(=O)NCc3cnccn3)(CC1)C(O)C2 (centres unmarked) [Compound 144] | > 2000 nM
Cc1cc(CNC(=O)C23CC(NC(=O)COc4ccc(Cl)c(F)c4)(C2)C3)n(C)n1 [Compound 151, 3-[2-(4-chloro-3-fluorophenoxy)acetamido]-N-[(1,3-dimethyl-1H-pyrazol-5-yl)methyl]bicyclo[1.1.1]pentane-1-carboxamide] | > 2000 nM
Cc1nn(C)cc1CNC(=O)C12CC(NC(=O)COc3ccc(Cl)c(F)c3)(C1)C2 [Compound 152, 3-[2-(4-chloro-3-fluorophenoxy)acetamido]-N-[(1,3-dimethyl-1H-pyrazol-4-yl)methyl]bicyclo[1.1.1]pentane-1-carboxamide] | > 2000 nM
O=C(COc1ccc(Cl)c(F)c1)NC12CC(C(=O)NCCc3ccccn3)(C1)C2 [Compound 153, 3-[2-(4-chloro-3-fluorophenoxy)acetamido]-N-[2-(pyridin-2-yl)ethyl]bicyclo[1.1.1]pentane-1-carboxamide] | > 2000 nM
Cc1cc(CNC(=O)C23CC(NC(=O)COc4ccc(Cl)c(Cl)c4)(C2)C3)n(C)n1 [Compound 154, 3-[2-(3,4-dichlorophenoxy)acetamido]-N-[(1,3-dimethyl-1H-pyrazol-5-yl)methyl]bicyclo[1.1.1]pentane-1-carboxamide] | > 2000 nM
Cc1ccc(CNC(=O)C23CC(NC(=O)COc4ccc(Cl)c(F)c4)(C2)C3)cn1 [Compound 155, 3-[2-(4-chloro-3-fluorophenoxy)acetamido]-N-[(6-methylpyridin-3-yl)methyl]bicyclo[1.1.1]pentane-1-carboxamide] | > 2000 nM
COc1ccc(CNC(=O)C23CC(NC(=O)COc4ccc(Cl)c(F)c4)(C2)C3)cn1 [Compound 157, 3-[2-(4-chloro-3-fluorophenoxy)acetamido]-N-[(6-methoxypyridin-3-yl)methyl]bicyclo[1.1.1]pentane-1-carboxamide] | > 2000 nM
Cc1noc(CNC(=O)C23CC(NC(=O)COc4ccc(Cl)c(F)c4)(C2)C3)n1 [Compound 159, 3-[2-(4-chloro-3-fluorophenoxy)acetamido]-N-[(3-methyl-1,2,4-oxadiazol-5-yl)methyl]bicyclo[1.1.1]pentane-1-carboxamide] | > 2000 nM
Cc1cc(CNC(=O)C23CC(NC(=O)COc4ccc(Cl)c(F)c4)(C2)C3)c(C)o1 [Compound 160, 3-[2-(4-chloro-3-fluorophenoxy)acetamido]-N-[(2,5-dimethylfuran-3-yl)methyl]bicyclo[1.1.1]pentane-1-carboxamide] | > 2000 nM
O=C(COc1ccc(Cl)c(F)c1)NC12CC(C(=O)NCc3cccc(OC(F)(F)F)c3)(C1)C2 [Compound 161, 3-[2-(4-chloro-3-fluorophenoxy)acetamido]-N-{[3-(trifluoromethoxy)phenyl]methyl}bicyclo[1.1.1]pentane-1-carboxamide] | > 2000 nM
O=C(COc1ccc(Cl)c(F)c1)NC12CC(C(=O)NCc3ccccc3)(C1)C2 [Compound 162, N-benzyl-3-[2-(4-chloro-3-fluorophenoxy)acetamido]bicyclo[1.1.1]pentane-1-carboxamide] | > 2000 nM
O=C(COc1ccc(Cl)c(F)c1)NC12CC(C(=O)NCc3c(Cl)cccc3Cl)(C1)C2 [Compound 163, 3-[2-(4-chloro-3-fluorophenoxy)acetamido]-N-[(2,6-dichlorophenyl)methyl]bicyclo[1.1.1]pentane-1-carboxamide] | > 2000 nM
Cc1ccncc1CNC(=O)C12CC(NC(=O)COc3ccc(Cl)c(F)c3)(C1)C2 [Compound 165, 3-[2-(4-chloro-3-fluorophenoxy)acetamido]-N-[(4-methylpyridin-3-yl)methyl]bicyclo[1.1.1]pentane-1-carboxamide] | > 2000 nM
Cc1cccc(CNC(=O)C23CC(NC(=O)COc4ccc(Cl)c(F)c4)(C2)C3)c1 [Compound 166, 3-[2-(4-chloro-3-fluorophenoxy)acetamido]-N-[(3-methylphenyl)methyl]bicyclo[1.1.1]pentane-1-carboxamide] | > 2000 nM
CC(C)(C)c1ccc(CNC(=O)C23CC(NC(=O)COc4ccc(Cl)c(F)c4)(C2)C3)cc1 [Compound 167, N-[(4-tert-butylphenyl)methyl]-3-[2-(4-chloro-3-fluorophenoxy)acetamido]bicyclo[1.1.1]pentane-1-carboxamide] | > 2000 nM
O=C(COc1ccc(Cl)c(F)c1)NC12CC(C(=O)NCc3cnoc3)(C1)C2 [Compound 170, 3-[2-(4-chloro-3-fluorophenoxy)acetamido]-N-[(1,2-oxazol-4-yl)methyl]bicyclo[1.1.1]pentane-1-carboxamide] | > 2000 nM
CC(NC(=O)C12CC(NC(=O)COc3ccc(Cl)c(F)c3)(C1)C2)c1ccccc1 (centres unmarked) [Compound 172, 3-[2-(4-chloro-3-fluorophenoxy)acetamido]-N-(1-phenylethyl)bicyclo[1.1.1]pentane-1-carboxamide] | > 2000 nM
COc1ccc(CNC(=O)C23CC(NC(=O)COc4ccc(Cl)c(F)c4)(C2)C3)cc1F [Compound 173, 3-[2-(4-chloro-3-fluorophenoxy)acetamido]-N-[(3-fluoro-4-methoxyphenyl)methyl]bicyclo[1.1.1]pentane-1-carboxamide] | > 2000 nM
Cc1ccc(F)c(CNC(=O)C23CC(NC(=O)COc4ccc(Cl)c(F)c4)(C2)C3)c1 [Compound 174, 3-[2-(4-chloro-3-fluorophenoxy)acetamido]-N-[(2-fluoro-5-methylphenyl)methyl]bicyclo[1.1.1]pentane-1-carboxamide] | > 2000 nM
CN(Cc1ccccc1)C(=O)C12CC(NC(=O)COc3ccc(Cl)c(F)c3)(C1)C2 [Compound 175, N-benzyl-3-[2-(4-chloro-3-fluorophenoxy)acetamido]-N-methylbicyclo[1.1.1]pentane-1-carboxamide] | > 2000 nM
Cc1csc(CNC(=O)C23CC(NC(=O)COc4ccc(Cl)c(F)c4)(C2)C3)n1 [Compound 176, 3-[2-(4-chloro-3-fluorophenoxy)acetamido]-N-[(4-methyl-1,3-thiazol-2-yl)methyl]bicyclo[1.1.1]pentane-1-carboxamide] | > 2000 nM

The remaining lines, values ahead:

EC50 | Compound
< 250 nM | CN(Cc1ccc(C(F)(F)F)cc1)C(=O)C12CCC(NC(=O)COc3ccc(Cl)c(F)c3)(CC1)CC2O (centres unmarked) [Compound 145, 4-[2-(4-chloro-3-fluorophenoxy)acetamido]-2-hydroxy-N-methyl-N-{[4-(trifluoromethyl)phenyl]methyl}bicyclo[2.2.2]octane-1-carboxamide]
< 250 nM | O=C(COc1ccc(Cl)c(F)c1)NC12CCC(C(=O)NCc3ccc(OC(F)F)cn3)(CC1)C(O)C2 (centres unmarked) [Compound 146, 4-[2-(4-chloro-3-fluorophenoxy)acetamido]-N-{[5-(difluoromethoxy)pyridin-2-yl]methyl}-2-hydroxybicyclo[2.2.2]octane-1-carboxamide]
250 to 500 nM | O=C(COc1ccc(Cl)c(F)c1)NC12CC(C(=O)NCc3ccc(OC(F)F)cn3)(C1)C2 [Compound 147, 3-[2-(4-chloro-3-fluorophenoxy)acetamido]-N-{[5-(difluoromethoxy)pyridin-2-yl]methyl}bicyclo[1.1.1]pentane-1-carboxamide]
< 250 nM | O=C(COc1ccc(Cl)c(Cl)c1)NC12CC(C(=O)NCc3ccc(OC(F)F)cn3)(C1)C2 [Compound 148, 3-[2-(3,4-dichlorophenoxy)acetamido]-N-{[5-(difluoromethoxy)pyridin-2-yl]methyl}bicyclo[1.1.1]pentane-1-carboxamide]
250 to 500 nM | O=C(COc1ccc(Cl)c(F)c1)NC12CC(C(=O)NCc3ccc(C(F)(F)F)nc3)(C1)C2 [Compound 149, 3-[2-(4-chloro-3-fluorophenoxy)acetamido]-N-{[6-(trifluoromethyl)pyridin-3-yl]methyl}bicyclo[1.1.1]pentane-1-carboxamide]
< 250 nM | O=C(COc1ccc(Cl)c(Cl)c1)NC12CC(C(=O)NCc3ccc(C(F)(F)F)nc3)(C1)C2 [Compound 150, 3-[2-(3,4-dichlorophenoxy)acetamido]-N-{[6-(trifluoromethyl)pyridin-3-yl]methyl}bicyclo[1.1.1]pentane-1-carboxamide]
< 250 nM | O=C(COc1ccc(Cl)c(F)c1)NC12CC(C(=O)NCc3ccc(C(F)(F)F)cc3)(C1)C2 [Compound 156, 3-[2-(4-chloro-3-fluorophenoxy)acetamido]-N-{[4-(trifluoromethyl)phenyl]methyl}bicyclo[1.1.1]pentane-1-carboxamide]
< 250 nM | Cc1ccc(OCCNC(=O)C23CC(NC(=O)COc4ccc(Cl)c(F)c4)(C2)C3)cc1C [Compound 158, 3-[2-(4-chloro-3-fluorophenoxy)acetamido]-N-[2-(3,4-dimethylphenoxy)ethyl]bicyclo[1.1.1]pentane-1-carboxamide]
1000 to 2000 nM | Cc1ccc(CNC(=O)C23CC(NC(=O)COc4ccc(Cl)c(F)c4)(C2)C3)nc1 [Compound 168, 3-[2-(4-chloro-3-fluorophenoxy)acetamido]-N-[(5-methylpyridin-2-yl)methyl]bicyclo[1.1.1]pentane-1-carboxamide]
500 to 1000 nM | O=C(COc1ccc(Cl)c(F)c1)NC12CC(C(=O)NCc3ccc(OC(F)F)cc3)(C1)C2 [Compound 169, 3-[2-(4-chloro-3-fluorophenoxy)acetamido]-N-{[4-(difluoromethoxy)phenyl]methyl}bicyclo[1.1.1]pentane-1-carboxamide]
1000 to 2000 nM | CC(Cc1ccc(F)cc1)NC(=O)C12CC(NC(=O)COc3ccc(Cl)c(F)c3)(C1)C2 (centres unmarked) [Compound 171, 3-[2-(4-chloro-3-fluorophenoxy)acetamido]-N-[1-(4-fluorophenyl)propan-2-yl]bicyclo[1.1.1]pentane-1-carboxamide]
